Patent publication US20100087491A1, “POLYCYCLIC COMPOUNDS” (priority 2006, published 2010)

What follows are compounds tested against T1, S1P1 receptor (Homo sapiens, UniProt P21453) (assay: S1P1 (EDG-1) GTP[γ-35S] binding assay, membranes from CHO cells). Conditions: CHO cell membranes.
T1 construct: expressed in transfected cells
Format: biochemical
Method: A. In Vitro: GPCR Activation Assay Measuring GTP [γ-^35S] Binding to Membranes Prepared from CHO Cells Expressing Human S1P Receptors
S1P, (EDG-1) GTP [γ-^35S] binding assay: Homogenized membranes are prepared from CHO cell clones stably expressing a human EDG-1 N-terminal c-myc tag. Cells are grown in suspension in two 850 cm^2 roller bottles for three or fours days before harvesting. The cells are centrifuged down, washed once with cold PBS, and resuspended in ≦20 ml of Buffer A (20 mM HEPES, pH 7.4, […], EDTA-free complete protease inhibitor cocktail [1 tablet/25 ml]). The cell suspension is homogenized on ice, using a Polytron homogenizer at 30000 rpm at three intervals of 15 seconds each. The homogenate is first centrifuged at 2000 rpm on a tabletop low speed centrifuge for 10 minutes. The supernatant, after passing through a cell strainer, is then re-centrifuged at 50,000×g for 25 minutes at 4° C. The pellet is resuspended into buffer B (15% glycerol, 20 mM HEPES, pH 7.4, 0.1 mM EDTA, EDTA-free complete protease inhibitor cocktail [1 tablet/10 ml]). Protein concentration of the preparation is determined using the BCA Protein Assay kit (Pierce) using BSA as standard. The membranes are aliquoted and kept frozen at −80° C.
Solutions of test compounds ranging from 10 mM to 0.01 nM are prepared in DMSO. S1P is diluted in 4% BSA solution as positive controls. The desired amount of membrane preparation is diluted with ice-cold assay buffer (20 mM HEPES, pH 7.4, 100 mM NaCl, 10 mM MgCl2, 0.1% Fatty acid-free BSA, 5 μM GDP) and vortexed well. 2 μl or less of compound is distributed into each well of a round-bottom 96-well polystyrene assay plate, followed by addition of 100 μl of diluted membranes (3-10 μg/well) and kept on ice until the addition of hot GTPγS. [^35S]-GTPγS is diluted 1:1000 (v/v) with cold assay buffer and 100 μl is added into each well. The reaction is carried out at room temperature for 90 minutes before the membranes are harvested onto Perkin-Elmer Unifilter® GF/B-96 filter plate using a Packard Filtermate Harvester. […]

T1 sequence (P21453 whole entry): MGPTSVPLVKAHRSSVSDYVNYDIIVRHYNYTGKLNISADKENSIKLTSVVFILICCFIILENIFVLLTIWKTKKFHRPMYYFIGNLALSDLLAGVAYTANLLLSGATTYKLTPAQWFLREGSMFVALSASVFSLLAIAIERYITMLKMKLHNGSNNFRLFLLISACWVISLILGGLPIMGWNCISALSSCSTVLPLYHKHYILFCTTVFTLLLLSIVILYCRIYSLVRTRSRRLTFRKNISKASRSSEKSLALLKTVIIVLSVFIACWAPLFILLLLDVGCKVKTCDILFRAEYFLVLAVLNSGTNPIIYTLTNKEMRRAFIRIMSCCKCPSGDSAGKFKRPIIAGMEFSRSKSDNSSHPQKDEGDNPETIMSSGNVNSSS

EC50, < 100 nM:
CCc1cc(-c2noc(-c3ccc(OC(C)C)c(-c4ccccc4)c3)n2)ccc1S(N)(=O)=O [Example 105]
CNCc1ccc(-c2noc(-c3ccc(-c4ccccc4)c(C(F)(F)F)c3)n2)cc1 [Example 44]
CCOc1ccc(-c2nc(-c3ccc(CN)cc3)no2)cc1C(F)(F)F [Example 21]
